Laboratory results as given in patent US8604087B2, “Composition for treating or preventing amyloid-related diseases comprising 4-O-methylhonokiol” (priority 2008, dated 2013).

Assays:
acetylcholinesterase [1] = target: acetylcholinesterase (Homo sapiens, UniProt P22303); test: Inhibition of acetylcholinesterase activity by honokiol and 4-O-methylhonokiol (modified Ellman's method); type: biochemical; conditions: for IC50: 5 minutes of reaction at 25° C., pH 8.0; for inhibition at 0.01 µM: concentration 10 nM; for inhibition at 0.1 µM: concentration 100 nM
Method: Acetylcholinesterase activity was analyzed by the modified Ellman's method [Ellman G. L., et al., Biochem. Pharmacol. 7, 88-95, 1961]. After adding 50 mM phosphate buffer (30 μL, pH 8.0) to a 96-well plate, different concentrations of 4-O-methylhonokiol or honokiol was added, 10 μL per well, and acetylcholinesterase was added, 10 μL per well. Then, 50 mM phosphate buffer (50 μL, pH 8.0) containing 0.5 mM acetylthiocholine iodide and 1 mM 5,5′-dithiobis(2-nitrobenzoic acid) was added as a substrate for the enzyme. After 5 minutes of reaction at 25° C., absorbance was measured at 412 nm. The inhibition of acetylcholinesterase activity was calculated by the following equation. Measurement was made 3 times. Inhibition of acetylcholinesterase activity (%)=[…]
ODb: absorbance of untreated reaction solution at 412 nm;
ODs: absorbance of treated reaction solution at 412 nm; and
ODc: absorbance of control at 412 nm.

[2] = tested on: scopolamine-induced impairment of learning ability of mice; test: Water maze test for evaluating spatial learning ability; type: in vivo, male ICR mice; conditions: for Improvement: escape distance
Method: In order to test the effect of 4-O-methylhonokiol on the scopolamine-induced impairment of learning ability of mice, experiment was performed as follows based on the water maze test animal model described in the literature [Korea Health Research Association, Guidelines for the Testing of Functional Health Foods, 663-701, 2004; Widy-Tyszkiewicz et al., Biol. Pharm. Bull., 2002]. 5-6 weeks old male ICR mice (20-28 g; Dae Han Biolink, Korea) were raised under controlled lighting (12-hour light-dark cycle) and temperature (22±2° C.) conditions. They were grouped (n=10) and given free access to food and water, in a cage. The mice were accustomed for a week before performing the test.
A round pool 180 cm in diameter and 50 cm in height was filled with water (22±3° C.) to 30 cm in depth. A transparent acryl resin platform (diameter 12 cm) was placed 1.5 cm below the surface of the water. The mice were trained for 6 days, 180 seconds a day (acquisition test). On day 7, retention test was carried out. The mice were forced to swim for 60 seconds by removing the platform. All the behaviors of the mice were recorded using a video camera. Time and distance were measured until the mice climbed onto the platform.
4-O-methylhonokiol (0.5, 1 and 1.5 mg/kg) was dissolved in drinking water and orally administered to the mice, for a week. The comparison group was treated with scopolamine only, and the control group was not treated with any substance.

[3] = tested on: scopolamine-induced impairment of memory of mice; test: Passive avoidance test for evaluating explicit memory; type: in vivo; conditions: for Improvement: step-through latency
Method: In order to test the effect of 4-O-methylhonokiol on the scopolamine-induced impairment of memory of mice, experiment was performed as follows based on the passive avoidance test animal model described in the literature [Korea Health Research Association, Guidelines for the Testing of Functional Health Foods, 663-701, 2004; Rho et al., Biol. Pharm. Bull., 2005].
A passive avoidance instrument consisting of two chambers separated by a guillotine door was used as the experimental apparatus. One chamber was an illuminated chamber made of transparent acryl boards (30×30×30 cm) and the other was a dark chamber made of black acryl boards (same dimensions). The floor of the dark chamber was equipped with a grid made of aluminum pieces separated by a regular spacing. The grid was connected to an apparatus for delivering electric shocks to the feet of the test animal. A mouse was put into the illuminated chamber and the guillotine door was opened so that the mouse could enter the dark chamber. The acquisition trials were repeated 3 times. On the third run, immediately after the mouse entered the dark chamber, an electric shock was delivered through the aluminum grid (0.1 mA, 5 seconds). Memory test was performed 24 hours after the acquisition trials. The mouse was put into the illuminated chamber, the guillotine door was opened, and the time taken for the mouse to enter the dark chamber was measured (step-through latency). A longer time means better learning ability and memory. 10 mice were tested for each group.

Amyloid-β 1-42 = test: Inhibition of amyloid-β 1-42 production in mouse brain cortex and hippocampus (amyloid beta 1-42 assay kit); type: in vivo; conditions: for Improvement: production amount
Method: (§1) After the behavioral pharmacological experiments, the brain cortex and hippocampus were separated from the brain of the mouse, homogenized with RO-PREP protein extraction solution, and centrifuged at 4° C., at 15,000 rpm, for 2 hours. The protein quantity of the supernatant was analyzed with a Bio-Rad protein analysis kit (Bio-Rad). Amyloid-β 1-42 were quantitated using an amyloid beta 1-42 assay kit (Immuno-Biological, Japan).
The protein extract (100 μL) obtained from the brain cortex or hippocampus was put in a coated 96-well plate and incubated at 4° C. overnight. After washing with washing buffer and adding labeled antibody solution, the mixture was incubated at 4° C. for 1 hour in the dark. After washing again and adding chromogen, the mixture was incubated at room temperature for 30 minutes in the dark. Then, after adding stop solution, absorbance was measured at 450 nm. Measurement was made 3 times.

Acetylcholinesterase [4] = target: T1, Acetylcholinesterase (Mus musculus, UniProt P21836); test: Acetylcholinesterase activity in mouse brain cortex and hippocampus after the behavioral experiments (modified Ellman's method); type: in vivo; design: Enzyme activity: unit not given beside the values; conditions: for Improvement: enzyme activity
T1 construct: the brain cortex and hippocampus were separated from the brain of the mouse, homogenized with RO-PREP protein extraction solution; from tissue; host or cells: mouse brain cortex and hippocampus
T1 sequence (P21836 32-614): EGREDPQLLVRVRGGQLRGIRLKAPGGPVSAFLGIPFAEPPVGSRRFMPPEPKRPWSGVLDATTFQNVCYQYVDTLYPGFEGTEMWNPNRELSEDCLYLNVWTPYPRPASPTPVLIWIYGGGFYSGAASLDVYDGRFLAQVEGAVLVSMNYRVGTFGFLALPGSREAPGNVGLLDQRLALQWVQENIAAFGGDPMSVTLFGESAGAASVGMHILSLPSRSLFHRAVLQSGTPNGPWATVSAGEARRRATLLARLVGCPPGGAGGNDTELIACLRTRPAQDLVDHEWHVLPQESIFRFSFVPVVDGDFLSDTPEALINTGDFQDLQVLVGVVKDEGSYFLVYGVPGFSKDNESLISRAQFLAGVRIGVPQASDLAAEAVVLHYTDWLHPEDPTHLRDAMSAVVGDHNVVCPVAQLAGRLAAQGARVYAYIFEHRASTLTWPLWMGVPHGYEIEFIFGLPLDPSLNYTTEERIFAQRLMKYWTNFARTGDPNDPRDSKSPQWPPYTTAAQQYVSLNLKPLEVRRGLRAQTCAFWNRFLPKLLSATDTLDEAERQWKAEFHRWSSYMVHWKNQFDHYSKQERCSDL
Method: as §1, with “solution (iNtRON Biotechnology),” for “solution,”, “Acetylcholinesterase activity was analyzed by the modified Ellman's method.” for “Amyloid-β 1-42 were quantitated using an amyloid beta 1-42 assay kit (Immuno-Biological, Japan).”
Cell lysate was put in a 96-well plate, 10 μL per well. After adding reaction buffer [190 μL, 0.01% DTNB, 0.02% acetylthiocholine and 0.1 mM isoOMPA in 50 mM Tris-HCl (pH 8.0, 0.1 M NaCl, 20 mM MgCl2)], measurement was made at 37° C., at 405 nm, for 5 minutes. After 10 minutes of reaction, measurement was made again at the same wavelength. After adding different concentrations of acetylcholinesterase and treating with standard buffer [0.01% DTNB and 0.02% 0.1 mM isoOMPA in 50 mM Tris-HCl (pH 8.0, 0.1 M NaCl, 20 mM MgCl2)], measurement was made at 37° C., at 405 nm, for 5 minutes. Activity was calculated from the difference of absorbance at the first and second measurements.

[5] = scopolamine 1 mg/kg + 4-O-methylhonokiol 0.5 mg/kg
[6] = scopolamine 1 mg/kg + 4-O-methylhonokiol 1 mg/kg
[7] = scopolamine 1 mg/kg + 4-O-methylhonokiol 1.5 mg/kg
[8] = brain cortex, scopolamine 1 mg/kg + 4-O-methylhonokiol 0.5 mg/kg
[9] = brain cortex, scopolamine 1 mg/kg + 4-O-methylhonokiol 1 mg/kg
[10] = brain cortex, scopolamine 1 mg/kg + 4-O-methylhonokiol 1.5 mg/kg
[11] = hippocampus, scopolamine 1 mg/kg + 4-O-methylhonokiol 0.5 mg/kg
[12] = hippocampus, scopolamine 1 mg/kg + 4-O-methylhonokiol 1 mg/kg
[13] = hippocampus, scopolamine 1 mg/kg + 4-O-methylhonokiol 1.5 mg/kg

Chain of acetylcholinesterase (P22303 32-614, species assumed): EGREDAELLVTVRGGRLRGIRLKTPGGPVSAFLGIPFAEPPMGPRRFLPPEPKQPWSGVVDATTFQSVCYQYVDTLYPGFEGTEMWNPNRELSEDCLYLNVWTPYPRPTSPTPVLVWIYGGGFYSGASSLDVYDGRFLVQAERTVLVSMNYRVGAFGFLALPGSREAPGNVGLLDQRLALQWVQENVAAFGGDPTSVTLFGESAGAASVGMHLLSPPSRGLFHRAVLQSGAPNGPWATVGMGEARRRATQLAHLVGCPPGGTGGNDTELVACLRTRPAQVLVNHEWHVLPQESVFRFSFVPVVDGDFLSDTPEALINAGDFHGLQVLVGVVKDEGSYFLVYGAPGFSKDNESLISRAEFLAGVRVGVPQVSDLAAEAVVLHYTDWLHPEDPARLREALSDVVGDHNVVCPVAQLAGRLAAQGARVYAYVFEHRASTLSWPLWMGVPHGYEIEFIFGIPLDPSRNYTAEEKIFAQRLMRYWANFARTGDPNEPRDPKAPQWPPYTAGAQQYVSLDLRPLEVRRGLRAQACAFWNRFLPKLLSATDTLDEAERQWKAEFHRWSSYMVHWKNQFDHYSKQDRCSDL

C=CCc1ccc(O)c(-c2ccc(O)c(CC=C)c2)c1 [Honokiol]
IC50 (acetylcholinesterase [1]): 250 nM | inhibition at 0.01 µM (acetylcholinesterase [1]): 17% | inhibition at 0.1 µM (acetylcholinesterase [1]): 43% | inhibition at 1 µM (acetylcholinesterase [1]; concentration 1000 nM): 74%

CN1[C@@H]2C[C@@H](OC(=O)[C@H](CO)c3ccccc3)C[C@H]1[C@@H]1O[C@@H]12 [scopolamine, Scopolamine, reference compound]
Escape distance ([2]; comparison group, scopolamine 1 mg/kg only (control group 232)): 884 cm | Step-through latency ([3]; comparison group, scopolamine 1 mg/kg only (control group 34.3)): 14.6 s

β-amyloid [reference compound]
Production amount (Amyloid-β 1-42; amyloid-β 1-42, brain cortex, comparison group, β-amyloid 1 mg/kg only (control group 23.5)): 28.1 | Production amount (Amyloid-β 1-42; amyloid-β 1-42, hippocampus, comparison group, β-amyloid 1 mg/kg only (control group 16.2)): 25.1

C=CCc1ccc(O)c(-c2ccc(OC)c(CC=C)c2)c1 [4-O-methylhonokiol]
Improvement [2, 5]: 48.8% | Improvement [2, 6]: 88.6% | Improvement [2, 7]: 91.8% | Escape distance ([2]; scopolamine 1 mg/kg + 4-O-methylhonokiol 0.5 mg/kg oral in drinking water for a week, mice): 566 cm | Escape distance ([2]; scopolamine 1 mg/kg + 4-O-methylhonokiol 1 mg/kg oral in drinking water for a week, mice): 305 cm | Escape distance ([2]; scopolamine 1 mg/kg + 4-O-methylhonokiol 1.5 mg/kg oral in drinking water for a week, mice): 284 cm | Production amount (Amyloid-β 1-42; amyloid-β 1-42, brain cortex, β-amyloid 1 mg/kg + 4-O-methylhonokiol 0.5 mg/kg): 26.8 | Production amount (Amyloid-β 1-42; amyloid-β 1-42, brain cortex, β-amyloid 1 mg/kg + 4-O-methylhonokiol 1 mg/kg): 24.3 | Production amount (Amyloid-β 1-42; amyloid-β 1-42, brain cortex, β-amyloid 1 mg/kg + 4-O-methylhonokiol 1.5 mg/kg): 23.1 | Production amount (Amyloid-β 1-42; amyloid-β 1-42, hippocampus, β-amyloid 1 mg/kg + 4-O-methylhonokiol 0.5 mg/kg): 22.7 | Production amount (Amyloid-β 1-42; amyloid-β 1-42, hippocampus, β-amyloid 1 mg/kg + 4-O-methylhonokiol 1 mg/kg): 18.2 | Production amount (Amyloid-β 1-42; amyloid-β 1-42, hippocampus, β-amyloid 1 mg/kg + 4-O-methylhonokiol 1.5 mg/kg): 16.5 | Improvement (Amyloid-β 1-42; brain cortex, β-amyloid 1 mg/kg + 4-O-methylhonokiol 0.5 mg/kg): 28.3% | Improvement (Amyloid-β 1-42; brain cortex, β-amyloid 1 mg/kg + 4-O-methylhonokiol 1 mg/kg): 82.6% | Improvement (Amyloid-β 1-42; brain cortex, β-amyloid 1 mg/kg + 4-O-methylhonokiol 1.5 mg/kg): 100% | Improvement (Amyloid-β 1-42; hippocampus, β-amyloid 1 mg/kg + 4-O-methylhonokiol 0.5 mg/kg): 33.3% | Improvement (Amyloid-β 1-42; hippocampus, β-amyloid 1 mg/kg + 4-O-methylhonokiol 1 mg/kg): 77.8% | Improvement (Amyloid-β 1-42; hippocampus, β-amyloid 1 mg/kg + 4-O-methylhonokiol 1.5 mg/kg): 95.6% | IC50 (acetylcholinesterase [1]): 1.2 nM | inhibition at 0.001 µM (acetylcholinesterase [1]; concentration 1 nM): 47% | inhibition at 0.01 µM (acetylcholinesterase [1]): 68% | inhibition at 0.1 µM (acetylcholinesterase [1]): 78% | times better inhibition ability of acetylcholinesterase activity than honokiol (acetylcholinesterase [1]; ratio of IC50 values): about 200 times | Enzyme activity (Acetylcholinesterase [4]; [8]): 30.2 | Enzyme activity (Acetylcholinesterase [4]; [9]): 24.1 | Enzyme activity (Acetylcholinesterase [4]; [10]): 19.1 | Improvement (Acetylcholinesterase [4]; [8]): 42.8% | Improvement (Acetylcholinesterase [4]; [9]): 70.3% | Improvement (Acetylcholinesterase [4]; [10]): 92.8% | Improvement (Acetylcholinesterase [4]; [11]): 72.7% | Improvement (Acetylcholinesterase [4]; [12]): 93.2% | Improvement (Acetylcholinesterase [4]; [13]): 97.7% | Enzyme activity (Acetylcholinesterase [4]; [11]): 14.1 | Enzyme activity (Acetylcholinesterase [4]; [12]): 13.2 | Enzyme activity (Acetylcholinesterase [4]; [13]): 13 | Step-through latency ([3]; scopolamine 1 mg/kg + 4-O-methylhonokiol 0.5 mg/kg, 24 hours after acquisition trials): 21.9 s | Step-through latency ([3]; scopolamine 1 mg/kg + 4-O-methylhonokiol 1 mg/kg, 24 hours after acquisition trials): 28.3 s | Step-through latency ([3]; scopolamine 1 mg/kg + 4-O-methylhonokiol 1.5 mg/kg, 24 hours after acquisition trials): 33.5 s | Improvement [3, 5]: 37.1% | Improvement [3, 6]: 70% | Improvement [3, 7]: 95%
